SMILES strings stand for the structures.

The test system of one experiment is PKA and GSK-3β. Put plainly: Receptor functionality: Western blot of PKA and GSK-3β in B16-F10 melanoma cells. The class given is cell-based. Here is the method:
To detect the level of expression of the A3AR proteins Western blot analysis was performed. Cells were incubated in the presence and absence of IB-MECA (10 nM), MRS1523 (10 nM), Forskolin (50 nM), 8 Br cAMP (100 μM), Cycloheximide 20 μg/ml or MG 132 (20 nM) for different time periods at 37° C. Cells were then rinsed with ice-cold PBS and transferred to ice-cold lysis buffer (TNN buffer, 50 mM Tris buffer pH=7.5, 150 mM NaCl, NP 40). In the experiment examining the effect of trypsin on A3AR expression, cells were incubated with 0.5 ml of 0.25% trypsin for 5 minutes. The trypsinized cells were washed again with ice-cold PBS, harvested by centrifugation and subjected to lysis in TNN buffer. Cell debris was removed by centrifugation for 10 minutes, at 7500 xg. The supernatant was utilized for Western Blot analysis. Protein concentrations were determined using the Bio-Rad protein assay dye reagent. Equal amounts of the sample (50 μg) were separated by SDS-PAGE, using 12% polyacrylamide gels. The resolved proteins were then electroblotted onto nitrocellulose membranes (Schleicher & Schuell, Keene, NH, USA). Membranes were blocked with 1% bovine serum albumin and incubated with the desired primary antibody (dilution 1:1000) for 24 hours at 4° C. Blots were then washed and incubated with a secondary antibody for 1 hour at room temperature. Bands were recorded using BCIP/NBT color development kit (Promega, Madison, W1, USA). Data presented in the different figures are representative of at least three different experiments.
To test receptor functionality, the protein expression level of PKA and GSK-3β, which are modulated downstream to A3AR activation, was examined. Functional receptor sensitization by IB-MECA was observed after 15 and 60 minutes and was manifested by decreased PKA and increased GSK-3β levels. […] Indeed, the modulatory effect of IB-MECA on PKA and GSK-3β was reversed in the presence of the above agents (FIG. 8a, 8b and 8c).

Another experiment addresses T1, A3AR (Mus musculus, UniProt Q61618).
T1 construct: endogenous in cells; host or cells: B16-F10 melanoma cells
T1 sequence (Q61618 1-319): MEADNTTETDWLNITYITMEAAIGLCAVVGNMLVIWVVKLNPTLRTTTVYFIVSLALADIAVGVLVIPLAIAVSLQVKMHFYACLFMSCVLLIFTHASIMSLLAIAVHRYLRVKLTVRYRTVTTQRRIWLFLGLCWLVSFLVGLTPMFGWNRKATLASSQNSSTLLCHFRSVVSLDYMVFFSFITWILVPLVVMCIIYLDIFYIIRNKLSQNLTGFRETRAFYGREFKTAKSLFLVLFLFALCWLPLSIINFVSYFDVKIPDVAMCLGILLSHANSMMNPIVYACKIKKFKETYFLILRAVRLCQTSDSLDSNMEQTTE
Put plainly: Immunostaining and confocal microscopy of A3AR localization in B16-F10 melanoma cells. The class given is cell-based. Here is the method: B16-F10 melanoma cells were grown for 24 hours on cover slips coated with Ploy-L-Lysine (500 μg/ml). Cells were fixed in 4% formaldehyde in phosphate-buffered saline (PBS) for 1 hour at room temperature. The fixed cells were rinsed three times for one min with PBS. To block nonspecific interaction of the antibodies, cells were incubated for 30 minutes in 4% normal goat serum (NGS) in PBS (1% bovine serum albumin (BSA), 0.1% Triton X-100). For the single labeling experiments, cells were then incubated with the primary antibodies against A3AR at a dilution of 1:1000 in PBS (1% BSA, 1% NGS, 0.1% Triton X-100) for 24 hours at 4° C. For the double labeling experiments, antibodies against the A2B adenosine receptor (A2BR) were added at a dilution of 1:1000 to the reaction mixture. After being washed three times for 3 minutes with PBS, cells were incubated with Cy3-conjugated anti-goat IgG for the single labeling experiment, and with both, Fluorescein-conjugated anti-rabbit IgG and Cy3 for the double labeling. Both antibodies were diluted to 1:250 in PBS and incubated in the dark for 2 hours. Cells were rinsed with PBS three more times and mounted with AM 100 (Chemicon, Ca). Stained cells were visualized by Confocal Microscope (Zeiss, Axiovert 100 M, excitation at 553 and emission at 560-615 nm for Cy3, and 492 and 520 nm, respectively, for Fluorescein).
To study receptor localization, confocal laser microscopy was utilized.
To further explore the time course kinetic of A3AR internalization, B16-F10 melanoma cells were exposed for different time periods to IB-MECA and confocal microscopy analysis was carried out. FIG. 2 depicts the gradual internalization rate that occurred within a few minutes, resulting in the disappearance of the fluorescence after 6 minutes. […] This was followed by internalization/externalization after longer incubation time periods (30 and 60 minutes). To confirm the observation that the fluorescence level is decreased as a result of internalization, optical sectioning of the cells was performed (data not shown). […] To show the specificity of A3AR localization, it was compared to that of the A2B adenosine receptor. […] Upon exposure of the cells to IB-MECA, the A2BR was masked by A3AR in the cytoplasm.

As for `CNC(=O)[C@H]1O[C@@H](n2cnc3c(NCc4cccc(I)c4)ncnc32)[C@H](O)[C@@H]1O` [IB-MECA, 1-deoxy-1-[6[[(3-iodophenyl)methyl]amino]-9H-purine-9-yl]-N-methyl-β-D-ribofura-nuronaminde], the GSK-3β level entry in the experiment with PKA and GSK-3β (after 15 and 60 minutes) was “increased”; in the experiment with PKA and GSK-3β (at 30 minutes), “only slightly increased”. Moreover, the PKA level result in the experiment on PKA and GSK-3β (after 15 and 60 minutes) is “decreased”; with PKA and GSK-3β (at 30 minutes) it was “stabilized”. The “time to disappearance of the A3AR fluorescence (internalization)” value at A3AR (B16-F10 melanoma cells exposed to IB-MECA) was determined as 6 min. For the same compound, the “A3AR fluorescence level on the cell surface” value on A3AR (B16-F10 melanoma cells, IB-MECA treated, after 5 minutes) is reported as “marked decrease”. The “A3AR localization, optical sectioning” value is “seen both in the cytoplasm and on the cell surface” at A3AR (B16-F10 melanoma cells, after 15 and 60 minutes' exposure); “presented in the cytoplasm” at A3AR (B16-F10 melanoma cells, exposure for 5 minutes). In addition, at A3AR (B16-F10 melanoma cells, prolonged exposure (15 minutes)), the A3AR localization result is recorded as “receptor externalization to the cell surface”.

The record behind these values is patent US20040229246A1, “Diagnostic markers for therapeutic treatment” (Can-Fite Biopharam Ltd., priority 2002, published 2004).
